Assay results from patent publication US20070049564A1 (Wyeth, priority 2005, published 2007).
Values after ≈ are worked out from the molar mass of the structure shown. Read-outs that look alike come from different tables or passages of the source.

Tests used:
E. coli GC 2271 = experiment: MIC, broth microdilution; details: Escherichia coli, GC2271, E. coli GC 2271
S. aureus GC 6335 = experiment: MIC, broth microdilution; details: Staphylococcus aureus, GC6335, S. aureus GC 6335
E. faecalis GC 4555 = experiment: MIC, broth microdilution; details: Enterococcus faecalis, GC4555, E. faecalis GC 4555
E. coli GC 2233 = experiment: MIC, broth microdilution; details: Escherichia coli, GC2233, E. coli GC 2233
S. aureus GC 6469 = experiment: MIC, broth microdilution; details: Staphylococcus aureus, GC6469, S. aureus GC 6469
E. coli GC 3226 = experiment: MIC, broth microdilution; details: Escherichia coli, GC3226, E. coli GC 3226
S. pyogenes GC 4563 = experiment: MIC, broth microdilution; details: Streptococcus pyogenes, GC4563, S. pyogenes GC 4563
E. coli GC 2270 = experiment: MIC, broth microdilution; details: Escherichia coli, GC2270, E. coli GC 2270
Staph. = experiment: Range of MIC for Staph. strains, including MRSA; details: Staphylococcus aureus, MRSA
E. coli GC 2235 = experiment: MIC, broth microdilution; details: Escherichia coli, GC2235, E. coli GC 2235
E. faecium GC 2243 = experiment: MIC, broth microdilution; details: Enterococcus faecium, GC2243, E. faecium GC 2243
c. albicans GC 3066 = experiment: MIC, broth microdilution
S. typhimurium GC 2172 = experiment: MIC, broth microdilution; details: Salmonella enterica, TYPHIMURIUM, S. typhimurium GC 2172
E. faecium GC 4556 = experiment: MIC, broth microdilution; details: Enterococcus faecium, GC4556, E. faecium GC 4556
S. agalactiae GC 4564 = experiment: MIC, broth microdilution; details: Streptococcus agalactiae, GC4564, S. agalactiae GC 4564
Description: (§1) Antimicrobial susceptibility testing. The in vitro activities of the antibiotics are determined by the broth microdilution method as recommended by the National Committee for Clinical Laboratory Standards (NCCLS) (1). Mueller-Hinton II broth (MHBII)(BBL Cockeysville, Md.) is the medium employed in the testing procedures. Microtiter plates containing serial dilutions of each antimicrobial agent are inoculated with each organism to yield the appropriate density (10^5 CFU/ml) in a 100 μl final volume. The plates are incubated for 18-22 hours at 35° C. in ambient air.
Representative compounds were first incubated in mouse serum for an hour prior to the in vitro testing against a panel of selected gram-positive and gram-negative bacteria strains. All compounds were also pre-incubated in water for an hour prior to testing as control. Representative compounds of Formula I were incubated in human serum prior to MIC determination.

S. aureus GC 1079 = experiment: MIC, broth microdilution; details: Staphylococcus aureus, GC1079, S. aureus GC 1079
E. faecalis GC 2265 = experiment: MIC, broth microdilution; details: Enterococcus faecalis, GC2265, E. faecalis GC 2265
Description: as §1
Representative compounds were first incubated in mouse serum for an hour prior to the in vitro testing against a panel of selected gram-positive and gram-negative bacteria strains. All compounds were also pre-incubated in water for an hour prior to testing as control.

E. coli = experiment: Range of MIC for E. coli strains; details: Escherichia coli
E. coli GC 2236 = experiment: MIC, broth microdilution; details: Escherichia coli, GC2236, E. coli GC 2236
E. coli GC 1073 = experiment: MIC, broth microdilution; details: Escherichia coli, GC1073, E. coli GC 1073

CCCN(CC(=O)Nc1cc(N(C)C)c2c(c1O)C(=O)C1=C(O)[C@]3(O)C(=O)C(C(N)=O)=C(O)[C@@H](N(C)C)[C@@H]3C[C@@H]1C2)C(=O)OCOC(=O)C1CCC1 [Example 7, ({[(2-{[(5aR,6aS,7S,10aS)-9-(aminocarbonyl)-4,7-bis(dimethylamino)-1,8,10a,11-tetrahydroxy-10,12-dioxo-5,5a,6,6a,7,10,10a,12-octahydrotetracen-2-yl]amino}-2-oxoethyl)(propyl)amino]carbonyl}oxy)methyl cyclobutanecarboxylate]
MIC (E. coli GC 2271; Mouse Serum pre-incubation): 0.5 µg/mL (≈ 0.687 µM) | MIC (E. coli GC 2271; Water pre-incubation): 4 µg/mL (≈ 5.5 µM) | MIC (S. aureus GC 6335; Mouse Serum pre-incubation): 1 µg/mL (≈ 1.37 µM) | MIC (S. aureus GC 6335; Water pre-incubation): 1 µg/mL (≈ 1.37 µM) | MIC (E. faecalis GC 4555; Mouse Serum pre-incubation): 0.5 µg/mL (≈ 0.687 µM) | MIC (E. faecalis GC 4555; Water pre-incubation): 1 µg/mL (≈ 1.37 µM) | MIC (E. coli GC 2233; Mouse Serum pre-incubation): 0.5 µg/mL (≈ 0.687 µM) | MIC (E. coli GC 2233; Water pre-incubation): 4 µg/mL (≈ 5.5 µM) | MIC (S. aureus GC 6469; Mouse Serum pre-incubation): 2 µg/mL (≈ 2.75 µM) | MIC (S. aureus GC 6469; Water pre-incubation): 4 µg/mL (≈ 5.5 µM) | MIC (E. coli GC 3226; Mouse Serum pre-incubation): 0.5 µg/mL (≈ 0.687 µM) | MIC (E. coli GC 3226; Water pre-incubation): 8 µg/mL (≈ 11 µM) | MIC (S. pyogenes GC 4563; Mouse Serum pre-incubation): 0.25 µg/mL (≈ 0.344 µM) | MIC (S. pyogenes GC 4563; Water pre-incubation): 0.25 µg/mL (≈ 0.344 µM) | MIC (E. coli GC 2270; Mouse Serum pre-incubation): 0.5 µg/mL (≈ 0.687 µM) | MIC (E. coli GC 2270; Water pre-incubation): 4 µg/mL (≈ 5.5 µM) | MIC (Staph.; read-out: Range of MIC, Staph (Mouse Serum)): 0.5 to 4 µg/mL (≈ 0.687 to 5.5 µM) | MIC (Staph.; read-out: Range of MIC, Staph (Water)): 0.5 to 4 µg/mL (≈ 0.687 to 5.5 µM) | MIC (Staph.; read-out: Range of MIC, Staph. (mouse serum)): 0.5 to 4 µg/mL (≈ 0.687 to 5.5 µM) | MIC (Staph.; read-out: Range of MIC, Staph. (water)): 0.5 to 4 µg/mL (≈ 0.687 to 5.5 µM) | MIC (E. coli GC 2235; Mouse Serum pre-incubation): 0.5 µg/mL (≈ 0.687 µM) | MIC (E. coli GC 2235; Water pre-incubation): 4 µg/mL (≈ 5.5 µM) | MIC (E. faecium GC 2243; Mouse Serum pre-incubation): 0.25 µg/mL (≈ 0.344 µM) | MIC (E. faecium GC 2243; Water pre-incubation): 0.12 µg/mL (≈ 0.165 µM) | MIC (c. albicans GC 3066; Candida albicans, GC3066): > 64 µg/mL | MIC (c. albicans GC 3066; c. albicans GC 3066, Water pre-incubation): >64 UG/ML | MIC (S. typhimurium GC 2172; Mouse Serum pre-incubation): 4 µg/mL (≈ 5.5 µM) | MIC (S. typhimurium GC 2172; Water pre-incubation): > 64 µg/mL | MIC (E. faecium GC 4556; Mouse Serum pre-incubation): 0.5 µg/mL (≈ 0.687 µM) | MIC (E. faecium GC 4556; Water pre-incubation): 1 µg/mL (≈ 1.37 µM) | MIC (S. agalactiae GC 4564; Mouse Serum pre-incubation): 0.25 µg/mL (≈ 0.344 µM) | MIC (S. agalactiae GC 4564; Water pre-incubation): 0.5 µg/mL (≈ 0.687 µM) | MIC (S. aureus GC 1079; Mouse Serum pre-incubation): 1 µg/mL (≈ 1.37 µM) | MIC (S. aureus GC 1079; Water pre-incubation): 4 µg/mL (≈ 5.5 µM) | MIC (E. faecalis GC 2265; Mouse Serum pre-incubation): 1 µg/mL (≈ 1.37 µM) | MIC (E. faecalis GC 2265; Water pre-incubation): 2 µg/mL (≈ 2.75 µM) | MIC (E. coli; 20 h, read-out: Range of MIC, E. coli (Mouse Serum)): 0.25 to 2 µg/mL (≈ 0.344 to 2.75 µM) | MIC (E. coli; read-out: Range of MIC, E. coli (Water)): 2 to 16 µg/mL (≈ 2.75 to 22 µM) | MIC (E. coli; read-out: Range of MIC, E. coli (mouse serum)): 0.25 to 2 µg/mL (≈ 0.344 to 2.75 µM) | MIC (E. coli; read-out: Range of MIC, E. coli (water)): 2 to 16 µg/mL (≈ 2.75 to 22 µM) | MIC (E. coli GC 2236; Mouse Serum pre-incubation): 0.25 µg/mL (≈ 0.344 µM) | MIC (E. coli GC 2236; Water pre-incubation): 2 µg/mL (≈ 2.75 µM) | MIC (E. coli GC 1073; Mouse Serum pre-incubation): 0.5 µg/mL (≈ 0.687 µM) | MIC (E. coli GC 1073; Water pre-incubation): 8 µg/mL (≈ 11 µM)
